Laboratory results published in patent publication US7989438B2, “Therapeutic compounds” (Istituto di Ricerche di Biologia Molecolare P. Angeletti SpA, priority 2007, dated 2011).
Where two headings read alike, the source gives them in different places.

Test system: HCV subgenomic replication
Assay: Cell based HCV replication assay (subgenomic replicon in Huh-7 cells, NS3 Cell-ELISA)
Settings: activity ranges
Summary of the method: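 Huh-7 cells stably carrying the I377neo/NS3-3′/wt subgenomic replicon, seeded at 10^4 cells/well in DMEM/10% FCS and exposed to inhibitor for 96 h. NS3 expression was measured by Cell-ELISA (mAb 10E5/24, alkaline phosphatase, absorbance 405/620 nm), in duplicate. IC50 was fitted to the Hill equation, with background from parental Huh-7 cells.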

[1] = Table 5, various macrocycles, read-out: IC50* (nM), Inhibition of HCV subgenomic replication
[2] = Table 2, various macrocycles, read-out: IC50* (nM), Inhibition of HCV subgenomic replication
[3] = Table A, Huh-7 replicon cells, 96 hours, read-out: IC50 (nM), Inhibition of HCV subgenomic replication

Cc1cccc2c1OC[C@@H]1CCCN(C)CCN(C)S(=O)(=O)NC(=O)c3ccc4c([C@H]5CCCC[C@@H]5F)c-2n(c4c3)C1 [Example 513, (7R)-14-[(1R,2S)-2-fluorocyclohexyl]-4,18,21-trimethyl-7,8-dihydro-6H-7,11-(propanoiminoethanoiminothioiminomethano)indolo[1,2-e][1,5]benzoxazocin-15-one 17,17-dioxide]
IC50 [1]: < 25 nM

CN1CCCC2COc3c(OCCN4CCCC4)cccc3-c3c(C4CCCCC4)c4ccc(cc4n3C2)C(=O)NS(=O)(=O)N(C)CC1 [Example 511, (7R)-14-cyclohexyl-18,21-dimethyl-4-(2-pyrrolidin-1-ylethoxy)-7,8-dihydro-6H-7,11-(propanoiminoethanoiminothioiminomethano)indolo[1,2-e][1,5]benzoxazocin-15-one 17,17-dioxide]
IC50 [1]: < 25 nM

CN1CCN2CCC(C2)N(C)S(=O)(=O)NC(=O)c2ccc3c(C4CCCCC4)c4n(c3c2)C[C@@H]1COc1ccccc1-4 [Compound A18, (18R)-29-cyclohexyl-10,17-dimethyl-20-oxa-9-thia-1,8,10,14,17-pentaazahexacyclo[16.9.1.1^2,6.1^3,27.1^11,14.0^21,26]hentriaconta-2(31),3,5,21,23,25,27(29)-heptaen-7-one 9,9-dioxide]
IC50 (Hepatitis C virus, Table A, Huh-7 replicon cells, 96 hours, read-out: IC50 (nM), Inhibition of HCV subgenomic replication): < 25 nM

CCN1CCN(Cc2cccnc2)C2COc3ccc(F)cc3-c3c(C4CCCCC4)c4ccc(cc4n3C2)C(=O)NS(=O)(=O)N(C)CC1 [Example 206, (7R)-14-cyclohexyl-21-ethyl-2-fluoro-18-methyl-24-(pyridin-3-ylmethyl)-7,8-dihydro-6H-7,11-(epiminoethanoiminoethanoiminothioiminomethano)-indolo[1,2-e][1,5]benzoxazocin-15-one 17,17-dioxide]
IC50 [2]: < 25 nM

CN1CCCN(C)S(=O)(=O)NC(=O)c2ccc3c(C4CCCCC4)c4n(c3c2)CC(CC1)COc1ccccc1-4 (single isomer, unassigned; (-)) [Compound A14, (−)-14-cyclohexyl-18,22-dimethyl-7,8-dihydro-6H-7,11-(ethanoiminopropanoiminothioiminomethano)indolo[1,2-e][1,5]benzoxazocin-15-one 17,17-dioxide]
IC50 [3]: < 25 nM

CN(C)CCN1CCC(C)(C)CCN(C)S(=O)(=O)NC(=O)c2ccc3c(C4CCCCC4)c4n(c3c2)CC1COc1ccccc1-4 [Compound A31, (7R)-14-cyclohexyl-24-[2-(dimethylamino)ethyl]-18,21,21-trimethyl-7,8-dihydro-6H-7,11-(epiminopentanoiminothioiminomethano)indolo[1,2-e][1,5]benzoxazocin-15-one 17,17-dioxide]
IC50 [3]: < 25 nM

COc1ccc2c(c1)OCC1CCCN(C)CCN(C)S(=O)(=O)NC(=O)c3ccc4c(C5CCCCC5)c-2n(c4c3)C1 (single isomer, unassigned; (+)) [Compound A36, (+)-14-cyclohexyl-3-methoxy-18,21-dimethyl-7,8-dihydro-6H-7,11-(propanoiminoethanoiminothioiminomethano)indolo[1,2-e][1,5]benzoxazocin-15-one 17,17-dioxide]
IC50 [3]: 25 to 150 nM

CN1CCN(C)C2COc3ccc(F)cc3-c3c(C4CCCCC4)c4ccc(cc4n3C2)C(=O)NS(=O)(=O)N(C)CC1 [Example 202, (7R)-14-cyclohexyl-2-fluoro-18,21,24-trimethyl-7,8-dihydro-6H-7,11-(epiminoethanoiminoethanoiminothioiminomethano)-indolo[1,2-e][1,5]benzoxazocin-15-one 17,17-dioxide]
IC50 [2]: < 25 nM

CN1CCN(C)C2COc3ccccc3-c3c(C4CCCCC4)c4ccc(cc4n3C2)C(=O)NS(=O)(=O)N(C)CC1 [Compound A2, (7R)-14-cyclohexyl-18,21,24-trimethyl-7,8-dihydro-6H-7,11-(epiminoethanoiminoethanoiminothioiminomethano)indolo[1,2-e][1,5]benzoxazocin-15-one 17,17-dioxide]
IC50 [3]: < 25 nM

CCN1CCN(C)[C@H]2COc3cc(OCc4ccccn4)ccc3-c3c(C4CCCCC4)c4ccc(cc4n3C2)C(=O)NS(=O)(=O)N(C)CC1 [Example 211, (7R)-14-cyclohexyl-21-ethyl-18,24-dimethyl-3-(pyridin-2-ylmethoxy)-7,8-dihydro-6H-7,11-(epiminoethanoiminoethanoiminothioiminomethano)-indolo[1,2-e][1,5]benzoxazocin-15-one 17,17-dioxide]
IC50 [2]: < 25 nM

CN1CCN(C)[C@H]2COc3c(CC4CC4)cccc3-c3c(C4CCCCC4)c4ccc(cc4n3C2)C(=O)NS(=O)(=O)N(C)CC1 [Example 407, (7R)-14-cyclohexyl-4-(cyclopropylmethyl)-18,21,24-trimethyl-7,8-dihydro-6H-7,11-(epiminoethanoiminoethanoiminothioiminomethano)-indolo[1,2-e][1,5]benzoxazocin-15-one 17,17-dioxide]
IC50 (Table 4, various macrocycles, read-out: IC50* (nM), Inhibition of HCV subgenomic replication): < 25 nM

CC(C)CN1CCN(C)C2COc3ccccc3-c3c(C4CCCCC4)c4ccc(cc4n3C2)C(=O)NS(=O)(=O)N(C)CC1 [Example 104, (7R)-14-cyclohexyl-21-isobutyl-18,24-dimethyl-7,8-dihydro-6H-7,11-(epiminoethanoiminoethanoiminothioiminomethano)-indolo[1,2-e][1,5]benzoxazocin-15-one 17,17-dioxide]
IC50 (Table 1, 16 membered macrocycles, read-out: IC50* (nM), Inhibition of HCV subgenomic replication): < 25 nM

CCN1CCN(CCNC)C2COc3cc(F)ccc3-c3c(C4CCCCC4)c4ccc(cc4n3C2)C(=O)NS(=O)(=O)N(C)CC1 [Example 208, (7R)-14-cyclohexyl-21-ethyl-3-fluoro-18-methyl-24-[2-(methylamino)ethyl]-7,8-dihydro-6H-7,11-(epiminoethanoiminoethanoiminothioiminomethano)-indolo[1,2-e][1,5]benzoxazocin-15-one 17,17-dioxide]
IC50 [2]: 25 to 150 nM

CN(C)CCN1CCOC2CCN(CC2)S(=O)(=O)NC(=O)c2ccc3c(C4CCCCC4)c4n(c3c2)C[C@@H]1COc1ccccc1-4 [Example 307, (20R)-31-cyclohexyl-21-[2-(dimethylamino)ethyl]-18,24-dioxa-2-thia-1,3,10,21-tetraazahexacyclo[23.2.2.1^5,9.1^8,11.1^10,20.0^12,17]dotriaconta-5(32),6,8,11(31),12,14,16-heptaen-4-one 2,2-dioxide]
IC50 (Hepatitis C virus, Huh-7, Table 3, various macrocycles, read-out: IC50* (nM), Inhibition of HCV subgenomic replication): 150 to 500 nM

CCN1CCN(C)C2COc3cc(F)ccc3-c3c(C4CCCCC4)c4ccc(cc4n3C2)C(=O)NS(=O)(=O)N(C)CC1 [Example 203, (7R)-14-cyclohexyl-21-ethyl-3-fluoro-18,24-dimethyl-7,8-dihydro-6H-7,11-(epiminoethanoiminoethanoiminothioiminomethano)-indolo[1,2-e][1,5]benzoxazocin-15-one 17,17-dioxide]
IC50 [2]: < 25 nM

CNC(=O)CN1CCN(C)CCN(C)S(=O)(=O)NC(=O)c2ccc3c(C4CCCCC4)c4n(c3c2)CC1COc1ccccc1-4 [Compound A30, 2-[(7R)-14-cyclohexyl-18,21-dimethyl-17,17-dioxido-15-oxo-7,8-dihydro-6H-7,11-(epiminoethanoiminoethanoiminothioiminomethano)indolo[1,2-e][1,5]benzoxazocin-24-yl]-N-methylacetamide]
IC50 [3]: 25 to 150 nM

CN1CCCN(C)S(=O)(=O)NC(=O)c2ccc3c(C4CCCCC4F)c4n(c3c2)CC(CC1)COc1ccccc1-4 (single isomer, unassigned) [Example 501, 14-[(1R,2S) or (1S,2R)-2-fluorocyclohexyl]-18,22-dimethyl-7,8-dihydro-6H-7,11-(ethanoiminopropanoiminothioiminomethano)indolo[1,2-e][1,5]benzoxazocin-15-one 17,17-dioxide]
IC50 [1]: 25 to 150 nM
